This is an account of results in US20250009649A1, “Implants for Loss of Taste and Smell” (Cyrano Therapeutics, Inc., priority 2021, published 2025).

The subject of data set [1] is patient who had loss of taste and smell from COVID-19. Description: Psychophysical smell test, forced-choice, three-stimuli, stepwise-staircase technique (detection and recognition thresholds for four odors). Type of data set: in vivo, human. The text has this: The Patient initially reported their sensory dysfunction as either loss of taste (i.e., flavor) and/or smell function. This subjective response was documented by objective psychophysical measurements of olfactory function administered to each patient by use of a forced-choice, three-stimuli, stepwise-staircase technique in a fixed, controlled design (1, 2). Efficacy of this technique and results of testing were previously documented in a double-blind clinical trial (2). Four odors were used; they were pyridine (dead-fish odor), nitrobenzene (bitter-almond odor), thiophene (petroleum-like odor) and amyl acetate (banana-oil odor). Detection thresholds (DT), and recognition thresholds (RT) values for each odor were determined as previously described (1, 2). Thresholds were converted into bottle units (BU) as previously described (2) and results reported as M of correct responses for each odor in each treatment group. References: (1) Henkin, R. I. Evaluation and treatment of human olfactory dysfunction, in Otolaryngology (English, G. M. Ed.), Lip pincott, Philadelphia, 1993, Vol. 2, pp. 1-86. (2) Henkin, R. I., Schecter, P. J., Friedewald, W. T., DeMets, D. L., Raff, M. S. A double blind study of the effects of zinc sulfate on taste and smell dysfunction. Amer. J. Med. Sci. 1976; 272: 285-299.
(§1) Theophylline was administered to a patient who had loss of taste and smell from COVID-19. A formulation containing 80 μg of theophylline was administered via two actuations from nasal spray device once per day. Prior to the initial administration of theophylline, a baseline smell test was performed. A follow-up smell test was performed 3 months after the initial administration. […] The patient's detection threshold (DT) and recognition threshold (RT) for pyridine (Pyr), nitrobenzene (NO2B), thiophene (Thio) and amyl acetate (AA) was determined before treatment (pre) and after treatment (3M). In all four odorant tests, the patient's detection threshold and recognition threshold improved. An improvement of 1 bottle unit means that a patient could detect and/or recognize an odorant that was 10 times lower in concentration, when compared to baseline. For example, the recognition threshold (RT) of AA improved by 8 bottle units, also equivalent to an improvement of 8 orders of magnitude. In this case, the patient could detect a concentration of AA that was 10^8 lower in concentration. Bottle unit numbers that are 5 or lower are considered to be in the range of normal.

Data set [2] shares this test system. Description: Side effects reported during intranasal theophylline treatment. Particulars: 80 μg theophylline via nasal spray once per day, 3 months. Type of data set: in vivo, human. As to the method: as §1
Where [3] appears, read: 3 months after initial administration, 80 μg theophylline nasal spray once per day, Pre value 10.
[4] abbreviates: 3 months after initial administration, 80 μg theophylline nasal spray once per day, Pre value 11.
The mark [5] stands for this setting: 3 months after initial administration, 80 μg theophylline nasal spray once per day, Pre value 12.

Consider `Cn1c(=O)c2[nH]cnc2n(C)c1=O` [theophylline], for which, in data set [1] (setting [3]), the “DT Thio (detection threshold, thiophene)” value was found to be 4 bottle units and the “RT Thio (recognition threshold, thiophene)” value came to 4 bottle units. Besides, in data set [1] (setting [4]), the “DT AA (detection threshold, amyl acetate)” value is recorded as 4 bottle units; the “DT NO2B (detection threshold, nitrobenzene)” value came out at 9 bottle units; the “RT Pyr (recognition threshold, pyridine)” value amounted to 7 bottle units. In addition, the “DT Pyr (detection threshold, pyridine)” value in data set [1] (3 months after initial administration, 80 μg theophylline nasal spray once per day, Pre value 11, 5 or lower is normal) worked out at 7 bottle units. For the same compound, in data set [1] (setting [5]), the “RT AA (recognition threshold, amyl acetate)” value is reported as 4 bottle units and the “RT NO2B (recognition threshold, nitrobenzene)” value is given as 9 bottle units. Also, the “improvement of recognition threshold (RT) of AA” value in data set [1] (3 months vs baseline, 80 μg theophylline nasal spray once per day) is given as 8 bottle units. Also, the “factor by which the detectable concentration of AA was lower” value in data set [1] (3 months vs baseline, 1 bottle unit = 10 times lower concentration) was 10^8. The “detection threshold and recognition threshold in all four odorant tests” value in data set [1] (3 months vs baseline, pyridine, nitrobenzene, thiophene, amyl acetate) is given as “improved”. The side effects entry in data set [2] is “No side effects”.
